Measurements as given in patent US7446117B2, “Cox-2 inhibiting pyridine derivatives” (Glaxo Group Limited, priority 2002, dated 2008).

Biological target: T1, microsomal h-COX2 (Homo sapiens, UniProt P35354)
T1 construct: made in house; host or cells: baculovirus infected SF9 cells (microsomal preparation)
T1 sequence (P35354 18-604): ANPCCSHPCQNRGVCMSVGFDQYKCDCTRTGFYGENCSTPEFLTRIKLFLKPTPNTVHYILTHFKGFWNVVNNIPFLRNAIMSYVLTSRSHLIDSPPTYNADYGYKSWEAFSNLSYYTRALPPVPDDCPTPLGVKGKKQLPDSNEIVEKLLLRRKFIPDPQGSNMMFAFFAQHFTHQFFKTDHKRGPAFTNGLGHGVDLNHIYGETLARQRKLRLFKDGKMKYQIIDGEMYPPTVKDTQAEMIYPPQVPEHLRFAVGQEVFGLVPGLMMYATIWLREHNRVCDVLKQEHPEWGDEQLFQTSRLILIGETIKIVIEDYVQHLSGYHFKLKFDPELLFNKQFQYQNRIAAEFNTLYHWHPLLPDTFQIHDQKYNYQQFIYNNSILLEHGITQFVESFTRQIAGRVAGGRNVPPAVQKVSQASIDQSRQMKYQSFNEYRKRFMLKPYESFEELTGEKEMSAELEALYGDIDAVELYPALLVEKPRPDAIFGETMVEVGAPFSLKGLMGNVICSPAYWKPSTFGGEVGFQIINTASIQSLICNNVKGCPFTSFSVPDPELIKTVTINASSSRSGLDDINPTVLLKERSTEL
Experiment: Microsomal assay: inhibitory activity against microsomal h-COX2
Assay type: biochemical
Details: microsomal preparation from baculovirus infected SF9 cells; 1 hour incubation with compound; 0.1 μM arachidonic acid, 10 minutes; PGE2 by EIA; read-out: IC50 values for inhibition of COX-2
Protocol: Biological Data Microsomal Assay
Inhibitory activity against microsomal h-COX2 was assessed against a microsomal preparation from baculovirus infected SF9 cells. An aliquot of microsomal preparation was thawed slowly on ice and a 1/40,000 dilution prepared from it into the assay buffer (sterile water, degassed with argon containing 100 mM HEPES (pH 7.4), 10 mM EDTA (pH7.4), 1 mM phenol, 1 mM reduced glutathione, 20 mg/ml gelatin and 0.001 mM Hematin). Once diluted the enzyme solution was then sonicated for 5 seconds (Branson sonicator, setting 4, 1 cm tip) to ensure a homogeneous suspension. 155 μl enzyme solution was then added to each well of a 96-well microtitre plate containing either 5 μl test compound (40× required test concentration) or 5 μl DMSO for controls. Plates were then mixed and incubated at room temperature for 1 hour. Following the incubation period, 40 μl of 0.5 μM arachidonic acid was added to each well to give a final concentration of 0.1 μM. Plates were then mixed and incubated for exactly 10 minutes (room temperature) prior to addition of 25 μl 1M HCl (hydrochloric acid) to each well to stop the reaction. 25 μl of 1M NaOH (sodium hydroxide) was then added to each well to neutralise the solution prior to determination of PGE2 levels by enzyme immunoassay (EIA).

Cn1ncnc1CNc1cc(C(F)(F)F)cc(-c2ccc(S(C)(=O)=O)cc2)n1 [Example 173]
IC50: ≤ 0.5 µM

CS(=O)(=O)c1ccc(-c2cc(C(F)(F)F)cc(NCc3cccs3)n2)cc1 [Example 174]
IC50: ≤ 0.5 µM

CS(=O)(=O)c1ccc(-c2cc(C(F)(F)F)cc(NCC3CCOCC3)n2)cc1 [Example 175]
IC50: ≤ 0.5 µM

Cc1ccc(Nc2cc(C(F)(F)F)cc(-c3ccc(S(C)(=O)=O)cc3)n2)c(C)n1 [Example 178]
IC50: ≤ 0.5 µM

Cc1cccc(CNc2cc(C(F)(F)F)cc(-c3ccc(S(C)(=O)=O)cc3)n2)n1 [Example 180]
IC50: ≤ 0.5 µM

Cc1ccc(Oc2cc(C(F)(F)F)cc(-c3ccc(S(C)(=O)=O)cc3)n2)c(C)n1 [Example 183]
IC50: ≤ 0.5 µM

Cc1cccc(COc2cc(C(F)(F)F)cc(-c3ccc(S(C)(=O)=O)cc3)n2)n1 [Example 184]
IC50: ≤ 0.5 µM

Cc1ncccc1COc1cc(C(F)(F)F)cc(-c2ccc(S(C)(=O)=O)cc2)n1 [Example 185]
IC50: ≤ 0.5 µM

Cc1ccc(COc2cc(C(F)(F)F)cc(-c3ccc(S(C)(=O)=O)cc3)n2)cn1 [Example 186]
IC50: ≤ 0.5 µM

Cc1nn(C)cc1CNc1cc(C(F)(F)F)cc(-c2ccc(S(C)(=O)=O)cc2)n1 [Example 187]
IC50: ≤ 0.5 µM

Cc1c(CNc2cc(C(F)(F)F)cc(-c3ccc(S(C)(=O)=O)cc3)n2)cnn1C [Example 188]
IC50: ≤ 0.5 µM

Cc1csc(CNc2cc(C(F)(F)F)cc(-c3ccc(S(C)(=O)=O)cc3)n2)n1 [Example 189]
IC50: ≤ 0.5 µM

CS(=O)(=O)c1ccc(-c2cc(C(F)(F)F)cc(Oc3cncc(Cl)c3)n2)cc1 [Example 190]
IC50: ≤ 0.5 µM

CS(=O)(=O)c1ccc(-c2cc(C(F)(F)F)cc(Nc3ccc(Cl)nn3)n2)cc1 [Example 191]
IC50: ≤ 0.5 µM

Cc1ccc(CNc2nc(-c3ccc(S(C)(=O)=O)cc3)cc(C)c2C#N)cn1 [Example 192]
IC50: ≤ 0.5 µM

CCN(Cc1ccccc1)c1cc(C(F)(F)F)cc(-c2ccc(S(C)(=O)=O)cc2)n1 [Example 193]
IC50: ≤ 0.5 µM

CCOC(=O)c1c(CC)cc(-c2ccc(S(C)(=O)=O)cc2)nc1NCc1ccccc1 [Example 197]
IC50: ≤ 0.5 µM

CS(=O)(=O)c1ccc(-c2cc(C(F)(F)F)cc(OCc3ccc(Br)cn3)n2)cc1 [Example 200]
IC50: ≤ 0.5 µM

CS(=O)(=O)c1ccc(-c2cc(C(F)(F)F)cc(OCc3ccncc3Br)n2)cc1 [Example 201]
IC50: ≤ 0.5 µM

Cc1cc(NCc2conc2C)nc(-c2ccc(S(C)(=O)=O)cc2)c1 [Example 202]
IC50: ≤ 0.5 µM

CCc1cc(NCc2nccn2CC)nc(-c2ccc(S(C)(=O)=O)cc2)c1 [Example 204]
IC50: ≤ 0.5 µM

Cc1cc(-c2ccc(S(C)(=O)=O)cc2)nc(N(C)Cc2nccn2C)c1C#N [Example 205]
IC50: ≤ 0.5 µM

CS(=O)(=O)c1ccc(-c2cc(C(F)(F)F)cc(N[C@H]3CC[C@@H](C)CC3)n2)cc1 [Example 206]
IC50: ≤ 0.5 µM

CS(=O)(=O)c1ccc(-c2cc(C(F)(F)F)cc(N[C@H]3CC[C@H](C)CC3)n2)cc1 [Example 207]
IC50: ≤ 0.5 µM

CS(=O)(=O)c1ccc(-c2cc(C(F)(F)F)cc(NCc3ccccn3)n2)cc1 [Example 208]
IC50: ≤ 0.5 µM

CS(=O)(=O)c1ccc(-c2cc(C(F)(F)F)cc(NC3CCCCCC3)n2)cc1 [Example 209]
IC50: ≤ 0.5 µM

Cc1cc(-c2ccc(S(C)(=O)=O)cc2)nc(NCc2ccccn2)c1C#N [Example 210]
IC50: ≤ 0.5 µM

CCC(CC)Nc1cc(C(F)(F)F)cc(-c2ccc(S(C)(=O)=O)cc2)n1 [Example 211]
IC50: ≤ 0.5 µM

CS(=O)(=O)c1ccc(-c2cc(C(F)(F)F)cc(NC3CCC3)n2)cc1 [Example 212]
IC50: ≤ 0.5 µM

Cc1noc(CNc2cc(C(F)(F)F)cc(-c3ccc(S(C)(=O)=O)cc3)n2)n1 [Example 213]
IC50: ≤ 0.5 µM

Cc1nc(CNc2cc(C(F)(F)F)cc(-c3ccc(S(C)(=O)=O)cc3)n2)no1 [Example 214]
IC50: ≤ 0.5 µM

CCc1cc(-c2ccc(S(C)(=O)=O)cc2)nc(OCc2ccccn2)c1C#N [Example 217]
IC50: ≤ 0.5 µM

Cc1cc(NCc2ccnn2C)nc(-c2ccc(S(C)(=O)=O)cc2)c1 [Example 218]
IC50: ≤ 0.5 µM

CS(=O)(=O)c1ccc(-c2cc(C(F)(F)F)cc(NCC3CCCC3)n2)cc1 [Example 219, N-(cyclopentanemethyl)-4-(trifluoromethyl)-6-[4-(methylsulfonyl)phenyl]pyridine-2-amine]
IC50: ≤ 0.5 µM

CCc1cc(-c2ccc(S(C)(=O)=O)cc2)nc(OCc2ccccn2)c1Cl [Example 220]
IC50: ≤ 0.5 µM

CCO[C@H]1CC[C@H](Nc2cc(C(F)(F)F)cc(-c3ccc(S(C)(=O)=O)cc3)n2)CC1 [Example 221]
IC50: ≤ 0.5 µM

CCc1cc(-c2ccc(S(C)(=O)=O)cc2)nc(NCc2ccccn2)c1C#N [Example 222, 4-Ethyl-6-[4-(methylsulfonyl)phenyl]-2-[(2-pyridinylmethyl)amino]-3-pyridinecarbonitrile]
IC50: ≤ 0.5 µM

CCc1cc(-c2ccc(S(C)(=O)=O)cc2)nc(NCc2ccc(C)cn2)c1C#N [Example 223]
IC50: ≤ 0.5 µM

CCc1cc(-c2ccc(S(C)(=O)=O)cc2)nc(NCc2ccc(C)nc2)c1C#N [Example 224]
IC50: ≤ 0.5 µM

CCc1cc(-c2ccc(S(C)(=O)=O)cc2)nc(NCc2cnn(C)c2)c1C#N [Example 228]
IC50: ≤ 0.5 µM

CCc1cc(-c2ccc(S(C)(=O)=O)cc2)nc(NCc2nc(C)cs2)c1C#N [Example 229]
IC50: ≤ 0.5 µM

CCc1cc(-c2ccc(S(C)(=O)=O)cc2)nc(NCC2CCCCC2)c1C#N [Example 231]
IC50: ≤ 0.5 µM

CCc1cc(NCc2ncnn2CC)nc(-c2ccc(S(C)(=O)=O)cc2)c1 [Example 232]
IC50: ≤ 0.5 µM

CCc1cc(NCc2ncnn2C)nc(-c2ccc(S(C)(=O)=O)cc2)c1 [Example 233]
IC50: ≤ 0.5 µM

CCn1ncnc1CNc1cc(C)cc(-c2ccc(S(C)(=O)=O)cc2)n1 [Example 234, N-[(1-ethyl-1H-1,2,4-triazol-5-yl)methyl]-4-methyl-6-[4-(methylsulfonyl)phenyl]pyridine-2-amine]
IC50: ≤ 0.5 µM

CCn1ncnc1CNc1cc(C(F)(F)F)cc(-c2ccc(S(C)(=O)=O)cc2)n1 [Example 235]
IC50: ≤ 0.5 µM

CCc1cc(-c2ccc(S(C)(=O)=O)cc2)nc(OCc2ccc(C)nc2)c1C#N [Example 236, 4-Ethyl-2-{[(6-methyl-3-pyridinyl)methyl]oxy}-6-[4-(methylsulfonyl)phenyl]-3-pyridinecarbonitrile]
IC50: ≤ 0.5 µM
